Test results from paper PMC7570544, “Biological Activities and ADMET-Related Properties of Novel Set of Cinnamanilides” (Molecules, 2020).

tested on: Staphylococcus aureus ATCC 29213; assay: In vitro antibacterial evaluation, broth microdilution MIC, reference strain; assay type: cell-based; conditions: Staphylococcus aureus, ATCC29213; S. aureus ATCC 29213

SMILES | MIC
O=C(/C=C/c1ccccc1)Nc1c(F)cc(F)cc1F [Compound 2, (2E)-3-Phenyl-N-(2,4,6-trifluorophenyl)prop-2-enamide] | > 924 µM
O=C(/C=C/c1ccccc1)Nc1cc(C(F)(F)F)ccc1Br [Compound 13, (2E)-N-[2-Bromo-5-(trifluoromethyl)phenyl]-3-phenylprop-2-enamide] | > 696 µM
O=C(/C=C/c1ccccc1)Nc1ccc([N+](=O)[O-])c(C(F)(F)F)c1 [Compound 18, (2E)-N-[4-Nitro-3-(trifluoromethyl)phenyl]-3-phenylprop-2-enamide] | > 762 µM

tested on: methicillin-resistant Staphylococcus aureus (MRSA) 63718; assay: In vitro antibacterial evaluation, broth microdilution MIC, MRSA isolate 63718; assay type: cell-based; conditions: clinical isolate MRSA 63718

SMILES | MIC
O=C(/C=C/c1ccccc1)Nc1c(F)cc(F)cc1F [Compound 2, (2E)-3-Phenyl-N-(2,4,6-trifluorophenyl)prop-2-enamide] | > 924 µM
O=C(/C=C/c1ccccc1)Nc1cc(C(F)(F)F)ccc1Br [Compound 13, (2E)-N-[2-Bromo-5-(trifluoromethyl)phenyl]-3-phenylprop-2-enamide] | > 696 µM
O=C(/C=C/c1ccccc1)Nc1ccc([N+](=O)[O-])c(C(F)(F)F)c1 [Compound 18, (2E)-N-[4-Nitro-3-(trifluoromethyl)phenyl]-3-phenylprop-2-enamide] | > 762 µM

tested on: methicillin-resistant Staphylococcus aureus (MRSA) SA 630; assay: In vitro antibacterial evaluation, broth microdilution MIC, MRSA isolate SA 630; assay type: cell-based; conditions: clinical isolate MRSA SA 630

SMILES | MIC
O=C(/C=C/c1ccccc1)Nc1c(F)cc(F)cc1F [Compound 2, (2E)-3-Phenyl-N-(2,4,6-trifluorophenyl)prop-2-enamide] | > 924 µM
O=C(/C=C/c1ccccc1)Nc1cc(C(F)(F)F)ccc1Br [Compound 13, (2E)-N-[2-Bromo-5-(trifluoromethyl)phenyl]-3-phenylprop-2-enamide] | > 696 µM
O=C(/C=C/c1ccccc1)Nc1ccc([N+](=O)[O-])c(C(F)(F)F)c1 [Compound 18, (2E)-N-[4-Nitro-3-(trifluoromethyl)phenyl]-3-phenylprop-2-enamide] | > 762 µM

tested on: Mycobacterium tuberculosis H37Ra/ATCC 25177; assay: In vitro antimycobacterial evaluation; assay type: cell-based; conditions: M. tuberculosis H37Ra
From the text: Isoniazid (Sigma) was used as the standard.

SMILES | MIC
O=C(/C=C/c1ccccc1)Nc1c(F)cc(F)cc1F [Compound 2, (2E)-3-Phenyl-N-(2,4,6-trifluorophenyl)prop-2-enamide] | > 462 µM
O=C(/C=C/c1ccccc1)Nc1cc(C(F)(F)F)ccc1Br [Compound 13, (2E)-N-[2-Bromo-5-(trifluoromethyl)phenyl]-3-phenylprop-2-enamide] | > 348 µM
O=C(/C=C/c1ccccc1)Nc1ccc([N+](=O)[O-])c(C(F)(F)F)c1 [Compound 18, (2E)-N-[4-Nitro-3-(trifluoromethyl)phenyl]-3-phenylprop-2-enamide] | > 381 µM

tested on: THP1-Blue™ NF-κB cell line; assay: In vitro cell viability assay (WST-1); assay type: cell-based; conditions: Homo sapiens; THP1-Blue NF-κB cells, 24 h incubation, WST-1, mean ± SEM, n = 6; read-out: Tox IC50 ± SEM
Procedure: The cytotoxic effect of the tested compounds was specified on THP1-Blue™ NF-κB cell line (Invivogen; San Diego, CA, USA), as described previously. […] The final concentration of DMSO was 0.1% (v/v) in each well. The viability analysis was performed after 24 h incubation with the tested substances using the WST-1 Cell Proliferation Reagent kit (Roche Diagnostics, Basel, Switzerland) according to the manufacturer’s manual. […] The IC50 values were calculated by four-parameter logistic (4PL) analysis from obtained viability curves by GraphPad Prism 8.0.1 (San Diego, CA, USA) software.

SMILES | IC50
O=C(/C=C/c1ccccc1)Nc1c(F)cc(F)cc1F [Compound 2, (2E)-3-Phenyl-N-(2,4,6-trifluorophenyl)prop-2-enamide] | > 20 µM
O=C(/C=C/c1ccccc1)Nc1cc(C(F)(F)F)ccc1Br [Compound 13, (2E)-N-[2-Bromo-5-(trifluoromethyl)phenyl]-3-phenylprop-2-enamide] | > 20 µM
O=C(/C=C/c1ccccc1)Nc1ccc([N+](=O)[O-])c(C(F)(F)F)c1 [Compound 18, (2E)-N-[4-Nitro-3-(trifluoromethyl)phenyl]-3-phenylprop-2-enamide] | > 20 µM

tested on: NF-κB in THP1-Blue™ NF-κB cells; assay: Determination of NF-κB activity after LPS stimulation (Quanti-Blue); assay type: cell-based, human; conditions: 1 µM compound, 1 h pretreatment, LPS 1 µg/mL, 24 h, vs DMSO group
Procedure: To evaluate the anti-inflammatory potential of novel compounds, their ability to attenuate the lipopolysaccharide (LPS)-activated pro-inflammatory transcription nuclear factor (NF)-κB was measured as was described previously. Briefly, THP1-Blue™ NF-κB cells were pretreated by tested compounds dissolved in DMSO in the non-toxic concentration 1 µM for 1 h. After LPS (1 µg/mL) stimulation, the NF-κB activity was evaluated by Quanti-Blue medium (Invivogen) according to the manufacturer’s instructions. The results from 3 independent experiments performed in triplicate (n = 9) were analyzed by GraphPad Prism 8.0.1 software. The outlaying values were excluded by ROUT algorithms (Q = 5%).
Figure 1 Effect of tested compounds on activity of transcription factor NF-κB. […] Then, lipopolysaccharide (LPS) 1 µg/mL was added to trigger the NF-κB activation. The activity of NF-κB was measured 24 h after LPS stimulation using QuantiBlue™ assay. The graph represents mean ± SEM (n = 9). […] Groups were compared with the help of the one-way ANOVA test followed by Fisher’s LSD multiple comparison test. * indicates statistical significance (p < 0.05) to DMSO group; ** indicates statistical significance (p < 0.01) to DMSO group; *** indicates statistical significance (p < 0.001) to DMSO group; **** indicates statistical significance (p < 0.0001) to DMSO group. CA—cinnamic acid.

SMILES | increase of NF-κB activity | decrease of NF-κB activity
O=C(/C=C/c1ccccc1)Nc1c(F)cc(F)cc1F [Compound 2, (2E)-3-Phenyl-N-(2,4,6-trifluorophenyl)prop-2-enamide] | 10–15% | –
O=C(/C=C/c1ccccc1)Nc1ccc([N+](=O)[O-])c(C(F)(F)F)c1 [Compound 18, (2E)-N-[4-Nitro-3-(trifluoromethyl)phenyl]-3-phenylprop-2-enamide] | – | approximately 9%

same assay, conditions: 1 µM compound, LPS 1 µg/mL

SMILES | anti-inflammatory potential (LPS-induced NF-κB activation), in words
O=C(/C=C/c1ccccc1)Nc1cc(C(F)(F)F)ccc1Br [Compound 13, (2E)-N-[2-Bromo-5-(trifluoromethyl)phenyl]-3-phenylprop-2-enamide] | insignificant anti-inflammatory potential

tested on: not listed separately; assay: Lipophilicity determination by RP-TLC; assay type: physicochemical; set-up: key to RM (MeOH:H2O): RM = log(1/RF - 1), from RP-18 TLC; conditions: 72:28 MeOH:H2O
Procedure: RM values were determined from the RP-18 TLC measurements. […] The volatiles were carefully evaporated, and the plate was developed by MeOH (100%) or MeOH: H2O-HPLC (72:28 v/v) or MeOH: NaOAc buffer, pH 7.4 (72:28 v/v). After drying, the spots were visualized under UV (λ = 365 nm). RM data were obtained from equation: RM = log(1/RF-1). Each experiment was repeated three times.

SMILES | RM (MeOH:H2O)
O=C(/C=C/c1ccccc1)Nc1c(F)cc(F)cc1F [Compound 2, (2E)-3-Phenyl-N-(2,4,6-trifluorophenyl)prop-2-enamide] | 0.1218
O=C(/C=C/c1ccccc1)Nc1cc(C(F)(F)F)ccc1Br [Compound 13, (2E)-N-[2-Bromo-5-(trifluoromethyl)phenyl]-3-phenylprop-2-enamide] | 0.7194
O=C(/C=C/c1ccccc1)Nc1ccc([N+](=O)[O-])c(C(F)(F)F)c1 [Compound 18, (2E)-N-[4-Nitro-3-(trifluoromethyl)phenyl]-3-phenylprop-2-enamide] | 0.6927

same assay, conditions: 72:28 MeOH:NaOAc buffer (pH 7.4)

SMILES | RM (pH 7.4)
O=C(/C=C/c1ccccc1)Nc1c(F)cc(F)cc1F [Compound 2, (2E)-3-Phenyl-N-(2,4,6-trifluorophenyl)prop-2-enamide] | 0.1951
O=C(/C=C/c1ccccc1)Nc1cc(C(F)(F)F)ccc1Br [Compound 13, (2E)-N-[2-Bromo-5-(trifluoromethyl)phenyl]-3-phenylprop-2-enamide] | 0.5619
O=C(/C=C/c1ccccc1)Nc1ccc([N+](=O)[O-])c(C(F)(F)F)c1 [Compound 18, (2E)-N-[4-Nitro-3-(trifluoromethyl)phenyl]-3-phenylprop-2-enamide] | 0.6160

same assay, conditions: 100% MeOH

SMILES | RM (100% MeOH)
O=C(/C=C/c1ccccc1)Nc1c(F)cc(F)cc1F [Compound 2, (2E)-3-Phenyl-N-(2,4,6-trifluorophenyl)prop-2-enamide] | −0.6536
O=C(/C=C/c1ccccc1)Nc1cc(C(F)(F)F)ccc1Br [Compound 13, (2E)-N-[2-Bromo-5-(trifluoromethyl)phenyl]-3-phenylprop-2-enamide] | −0.4325
O=C(/C=C/c1ccccc1)Nc1ccc([N+](=O)[O-])c(C(F)(F)F)c1 [Compound 18, (2E)-N-[4-Nitro-3-(trifluoromethyl)phenyl]-3-phenylprop-2-enamide] | −0.4804

tested on: not given; assay: not given; conditions: RP-HPLC, 72:28 MeOH:H2O

SMILES | Logk
O=C(/C=C/c1ccccc1)Nc1c(F)cc(F)cc1F [Compound 2, (2E)-3-Phenyl-N-(2,4,6-trifluorophenyl)prop-2-enamide] | −0.0831
O=C(/C=C/c1ccccc1)Nc1cc(C(F)(F)F)ccc1Br [Compound 13, (2E)-N-[2-Bromo-5-(trifluoromethyl)phenyl]-3-phenylprop-2-enamide] | 0.5561
O=C(/C=C/c1ccccc1)Nc1ccc([N+](=O)[O-])c(C(F)(F)F)c1 [Compound 18, (2E)-N-[4-Nitro-3-(trifluoromethyl)phenyl]-3-phenylprop-2-enamide] | 0.5004

tested on: not listed separately; assay: physchem; conditions: pH 6.5

SMILES | chromatographic logD
O=C(/C=C/c1ccccc1)Nc1c(F)cc(F)cc1F [Compound 2, (2E)-3-Phenyl-N-(2,4,6-trifluorophenyl)prop-2-enamide] | 0.0107
O=C(/C=C/c1ccccc1)Nc1cc(C(F)(F)F)ccc1Br [Compound 13, (2E)-N-[2-Bromo-5-(trifluoromethyl)phenyl]-3-phenylprop-2-enamide] | 0.594
O=C(/C=C/c1ccccc1)Nc1ccc([N+](=O)[O-])c(C(F)(F)F)c1 [Compound 18, (2E)-N-[4-Nitro-3-(trifluoromethyl)phenyl]-3-phenylprop-2-enamide] | 0.51

same assay, conditions: pH 7.4

SMILES | chromatographic logD
O=C(/C=C/c1ccccc1)Nc1c(F)cc(F)cc1F [Compound 2, (2E)-3-Phenyl-N-(2,4,6-trifluorophenyl)prop-2-enamide] | 0.026
O=C(/C=C/c1ccccc1)Nc1cc(C(F)(F)F)ccc1Br [Compound 13, (2E)-N-[2-Bromo-5-(trifluoromethyl)phenyl]-3-phenylprop-2-enamide] | 0.616
O=C(/C=C/c1ccccc1)Nc1ccc([N+](=O)[O-])c(C(F)(F)F)c1 [Compound 18, (2E)-N-[4-Nitro-3-(trifluoromethyl)phenyl]-3-phenylprop-2-enamide] | 0.557
